Reference: patent publication US20230066882A1, “Stable Reporter Flavivirus” (priority 2021, published 2023)

Tested on: panel of stable reporter viruses (DENV1, DENV2, DENV3, DENV4, ZIKV, YFV, JEV)
Type: cell-based

In the case of `C#C[C@@]1(O)[C@H](O)[C@@H](CO)O[C@H]1n1ccc2c(N)ncnc21` [NITD008], the EC50 values is reported as “potent” and the “luciferase expression compared to control” value is reported as “decreased luciferase expression”.
